Active and inactive are the calls of the source. The calls are words filed in the database; no cut-off is given here.
Tests used:
[1] = test system: Mus musculus; experiment: In vivo inhibition of STAT3 in BALB/c mouse xenografted with human BXPC-3 cells assessed as inhibition of STAT3 phosphorylation at Ser 727 at 30 mg/kg,po administrated once daily for 8 weeks by immunohistochemical analysis; format: functional, organism-based
[2] = Toxicity in BALB/c mouse xenografted with human BXPC-3 cells assessed as body weight change at 10 mg/kg,po administrated once daily for 8 weeks; format: organism-based; details: in vivo, 1344 h
[3] = test system: Capan-2; experiment: Anti-proliferative activity against human Capan-2 cells assessed as cell growth inhibition incubated for 72 hrs by MTS assay; format: functional, cell-based; details: Capan-2, 72 h
[4] = Microsomal stability in human liver microsomes assessed as intrinsic clearance incubated upto 40 mins in presence of NADPH by LC-MS/MS analysis; format: ADME, Microsome; details: read-out: CLH
[5] = Microsomal stability in human liver microsomes assessed as compound remaining incubated for 60 mins in presence of NADPH by LC-MS/MS analysis; format: ADME, Microsome; details: read-out: Stability
[6] = test system: BXPC-3; experiment: Antitumor activity against human BXPC-3 cells xenografted BALB/c mouse model assessed as tumor growth inhibition at 10 mg/kg,po administrated once daily for 8 weeks; format: functional; details: BXPC-3, 1344 h, read-out: TGI
[7] = test system: MIA PaCa-2; experiment: Anti-proliferative activity against human MIA PaCa-2 cells assessed as cell growth inhibition incubated for 72 hrs by MTS assay; format: functional, cell-based; details: MIA PaCa-2, 72 h
[8] = molecular target: T1, Signal transducer and activator of transcription 3 (Homo sapiens, UniProt P40763); experiment: Inhibition of STAT3 in human BXPC-3 cells assessed as reduction of c-Myc expression at 30 nM incubated for 4 to 24 hrs by western blot analysis; format: cell-based; details: time 4-24 hrs, TDE = time-dependent effect
[9] = molecular target: T2, Mitogen-activated protein kinase 13 (Homo sapiens, UniProt O15264); experiment: Inhibition of p38delta (unknown origin)
T2 sequence (O15264 whole entry): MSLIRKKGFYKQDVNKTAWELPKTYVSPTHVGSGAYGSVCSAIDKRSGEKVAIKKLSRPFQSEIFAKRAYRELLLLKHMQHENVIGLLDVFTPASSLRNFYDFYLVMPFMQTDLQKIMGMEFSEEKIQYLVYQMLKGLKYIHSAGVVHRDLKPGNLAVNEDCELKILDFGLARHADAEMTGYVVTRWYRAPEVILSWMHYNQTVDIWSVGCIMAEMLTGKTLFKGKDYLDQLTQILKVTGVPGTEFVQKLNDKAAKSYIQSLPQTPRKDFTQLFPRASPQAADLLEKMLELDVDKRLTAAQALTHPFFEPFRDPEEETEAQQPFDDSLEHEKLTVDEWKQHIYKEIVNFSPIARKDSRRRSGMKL

[10] = test system: Mus musculus; experiment: In vivo inhibition of STAT3 in BALB/c mouse xenografted with human BXPC-3 cells assessed as inhibition of STAT3 phosphorylation at Ser 727 at 10 mg/kg,po administrated once daily for 8 weeks by immunohistochemical analysis; format: functional, organism-based
[11] = molecular target: T1, Signal transducer and activator of transcription 3; experiment: Inhibition of STAT3 in human BXPC-3 cells assessed as inhibition of IL-6 stimulated cytoplasmic STAT3 phosphorylation at Tyr 705 at 1 to 30 nM by western blot assay; format: cell-based; details: dose 1-30 nM
[12] = molecular target: Cytochrome P450 2C9 (Homo sapiens, UniProt P11712); experiment: Inhibition of CYP2C9 in human liver microsomes using tolbutamide as substrate incubated for 60 mins in presence of NADPH by HPLC analysis; format: ADME, Microsome
[13] = molecular target: T1, Signal transducer and activator of transcription 3; experiment: Inhibition of STAT3 in human BXPC-3 cells assessed as inhibition of STAT3 phosphorylation at Tyr 705 at 30 nM incubated for 4 to 24 hrs by western blot analysis; format: cell-based; details: time 4-24 hrs, TDE = time-dependent effect
[14] = molecular target: T1, Signal transducer and activator of transcription 3; experiment: Inhibition of STAT3 in human Capan-2 cells assessed as reduction of Cyclin D1 expression at 30 nM incubated for 4 to 24 hrs by western blot analysis; format: cell-based; details: time 4-24 hrs, TDE = time-dependent effect
[15] = test system: PC-3; experiment: Anti-proliferative activity against human PC-3 cells assessed as cell growth inhibition incubated for 72 hrs by MTS assay; format: functional, cell-based; details: PC-3, 72 h
[16] = Toxicity in BALB/c mouse xenografted with human BXPC-3 cells assessed as effect on liver at 30 mg/kg,po administrated once daily for 8 weeks by H and E staining based microscopic analysis; format: organism-based; details: in vivo, 1344 h
[17] = Microsomal stability in rat liver microsomes assessed as intrinsic clearance incubated upto 40 mins in presence of NADPH by LC-MS/MS analysis; format: ADME, Microsome; details: read-out: CLH
[18] = Cmax in BALB/c mouse at 10 mg/kg,po measured upto 24 hrs by LC-MS/MS analysis; format: ADME, organism-based; parameters: time < 24 hrs, dose 10 mg/kg, route po; details: in vivo
[19] = Microsomal stability in human liver microsomes assessed as half life incubated upto 40 mins in presence of NADPH by LC-MS/MS analysis; format: ADME, Microsome
[20] = molecular target: T1, Signal transducer and activator of transcription 3; experiment: Inhibition of STAT3 in human BXPC-3 cells assessed as reduction of Cyclin D1 expression at 30 nM incubated for 4 to 24 hrs by western blot analysis; format: cell-based; details: time 4-24 hrs, TDE = time-dependent effect
[21] = molecular target: T1, Signal transducer and activator of transcription 3; experiment: Inhibition of STAT3 in human HEK293T cells assessed as inhibition of IL-6 stimulated STAT3 phosphorylation by dual-luciferase reporter assay; format: cell-based
[22] = molecular target: T1, Signal transducer and activator of transcription 3; experiment: Inhibition of STAT3 in human Capan-2 cells assessed as reduction of Cyclin D1 expression at 1 to 30 nM incubated for 22 to 24 hrs by western blot analysis; format: cell-based; details: dose 1-30 nM, time 22-24 hrs, DDE = dose-dependent effect
[23] = Toxicity in BALB/c mouse xenografted with human BXPC-3 cells assessed as effect on heart at 10 mg/kg,po administrated once daily for 8 weeks by H and E staining based microscopic analysis; format: organism-based; details: in vivo, 1344 h
[24] = molecular target: T1, Signal transducer and activator of transcription 3; experiment: Inhibition of STAT3 in human BXPC-3 cells assessed as inhibition of STAT3 phosphorylation at Tyr 705 at 1 to 30 nM incubated for 22 to 24 hrs by western blot analysis; format: cell-based; details: dose 1-30 nM, time 22-24 hrs, DDE = dose-dependent effect
[25] = molecular target: Mitogen-activated protein kinase 8 (Homo sapiens, UniProt P45983); experiment: Inhibition of JNK1 (unknown origin)
[26] = Toxicity in BALB/c mouse xenografted with human BXPC-3 cells assessed as effect on heart at 30 mg/kg,po administrated once daily for 8 weeks by H and E staining based microscopic analysis; format: organism-based; details: in vivo, 1344 h
[27] = Microsomal stability in rat liver microsomes assessed as half life incubated upto 40 mins in presence of NADPH by LC-MS/MS analysis; format: ADME, Microsome
[28] = test system: BXPC-3; experiment: Inhibition of mitochondrial respiration in human BXPC-3 cells assessed as reduction in maximal respiration rate at 1 to 30 nM incubated for 1 hr by seahorse XF96 flux analyzer; format: functional, cell-based; details: dose 1-30 nM, DDE = dose-dependent effect
[29] = molecular target: Tyrosine-protein kinase JAK1 (Homo sapiens, UniProt P23458); experiment: Inhibition of JAK1 (unknown origin)
[30] = molecular target: T1, Signal transducer and activator of transcription 3; experiment: Inhibition of STAT3 in human Capan-2 cells assessed as inhibition of IL-6 stimulated STAT3 phosphorylation at Tyr 705 at 1 to 30 nM by western blot assay; format: cell-based; details: dose 1-30 nM, DDE = dose-dependent effect
[31] = test system: BXPC-3; experiment: Antitumor activity against human BXPC-3 cells xenografted BALB/c mouse model assessed as tumor growth inhibition at 30 mg/kg,po administrated once daily for 8 weeks; format: functional; details: BXPC-3, 1344 h, read-out: TGI

T1 sequence (P40763 whole entry): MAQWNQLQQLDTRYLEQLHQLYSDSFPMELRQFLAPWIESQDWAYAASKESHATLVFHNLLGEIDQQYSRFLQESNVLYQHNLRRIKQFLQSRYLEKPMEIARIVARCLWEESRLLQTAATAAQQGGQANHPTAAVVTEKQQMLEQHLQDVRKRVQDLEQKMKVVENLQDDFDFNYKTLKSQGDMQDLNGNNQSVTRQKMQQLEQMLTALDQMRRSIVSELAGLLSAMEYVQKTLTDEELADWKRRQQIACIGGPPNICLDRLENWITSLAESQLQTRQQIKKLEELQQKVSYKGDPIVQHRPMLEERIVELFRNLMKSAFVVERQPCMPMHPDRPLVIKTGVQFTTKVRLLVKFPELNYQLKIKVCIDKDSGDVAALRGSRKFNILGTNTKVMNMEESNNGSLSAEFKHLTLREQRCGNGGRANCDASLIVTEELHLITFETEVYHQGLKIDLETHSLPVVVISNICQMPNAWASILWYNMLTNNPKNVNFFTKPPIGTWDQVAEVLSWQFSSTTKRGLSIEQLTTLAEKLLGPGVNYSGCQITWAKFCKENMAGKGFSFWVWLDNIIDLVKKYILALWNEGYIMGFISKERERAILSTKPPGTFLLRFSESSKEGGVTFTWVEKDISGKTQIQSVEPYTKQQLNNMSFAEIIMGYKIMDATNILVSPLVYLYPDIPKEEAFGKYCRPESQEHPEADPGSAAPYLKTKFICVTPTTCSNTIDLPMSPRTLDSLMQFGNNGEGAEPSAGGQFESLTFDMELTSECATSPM
Chain of Cytochrome P450 2C9 (P11712 whole entry): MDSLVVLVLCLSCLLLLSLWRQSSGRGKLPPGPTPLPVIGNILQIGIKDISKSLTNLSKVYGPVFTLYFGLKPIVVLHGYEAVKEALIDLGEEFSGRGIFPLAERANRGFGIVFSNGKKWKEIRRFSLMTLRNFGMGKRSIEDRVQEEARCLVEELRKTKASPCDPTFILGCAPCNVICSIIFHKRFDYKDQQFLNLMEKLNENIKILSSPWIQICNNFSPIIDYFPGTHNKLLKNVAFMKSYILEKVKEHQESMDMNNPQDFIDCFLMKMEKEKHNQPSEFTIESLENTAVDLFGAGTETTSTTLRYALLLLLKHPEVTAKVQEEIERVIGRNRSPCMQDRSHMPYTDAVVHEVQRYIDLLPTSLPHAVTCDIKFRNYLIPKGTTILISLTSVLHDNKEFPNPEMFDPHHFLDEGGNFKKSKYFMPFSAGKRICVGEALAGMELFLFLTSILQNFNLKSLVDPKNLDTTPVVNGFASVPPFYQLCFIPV
Chain of Mitogen-activated protein kinase 8 (P45983 whole entry): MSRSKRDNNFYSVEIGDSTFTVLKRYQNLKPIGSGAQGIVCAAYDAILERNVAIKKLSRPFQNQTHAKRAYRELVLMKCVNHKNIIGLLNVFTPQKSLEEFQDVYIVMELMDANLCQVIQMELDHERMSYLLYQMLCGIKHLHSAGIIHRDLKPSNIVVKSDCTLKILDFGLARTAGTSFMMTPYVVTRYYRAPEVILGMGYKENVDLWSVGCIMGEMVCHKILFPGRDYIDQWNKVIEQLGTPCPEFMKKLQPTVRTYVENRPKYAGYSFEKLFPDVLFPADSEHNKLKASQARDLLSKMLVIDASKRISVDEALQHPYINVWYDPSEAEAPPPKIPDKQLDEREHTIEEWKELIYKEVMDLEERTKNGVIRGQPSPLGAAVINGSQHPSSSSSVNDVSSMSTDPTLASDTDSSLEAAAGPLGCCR
Chain of Tyrosine-protein kinase JAK1 (P23458 whole entry): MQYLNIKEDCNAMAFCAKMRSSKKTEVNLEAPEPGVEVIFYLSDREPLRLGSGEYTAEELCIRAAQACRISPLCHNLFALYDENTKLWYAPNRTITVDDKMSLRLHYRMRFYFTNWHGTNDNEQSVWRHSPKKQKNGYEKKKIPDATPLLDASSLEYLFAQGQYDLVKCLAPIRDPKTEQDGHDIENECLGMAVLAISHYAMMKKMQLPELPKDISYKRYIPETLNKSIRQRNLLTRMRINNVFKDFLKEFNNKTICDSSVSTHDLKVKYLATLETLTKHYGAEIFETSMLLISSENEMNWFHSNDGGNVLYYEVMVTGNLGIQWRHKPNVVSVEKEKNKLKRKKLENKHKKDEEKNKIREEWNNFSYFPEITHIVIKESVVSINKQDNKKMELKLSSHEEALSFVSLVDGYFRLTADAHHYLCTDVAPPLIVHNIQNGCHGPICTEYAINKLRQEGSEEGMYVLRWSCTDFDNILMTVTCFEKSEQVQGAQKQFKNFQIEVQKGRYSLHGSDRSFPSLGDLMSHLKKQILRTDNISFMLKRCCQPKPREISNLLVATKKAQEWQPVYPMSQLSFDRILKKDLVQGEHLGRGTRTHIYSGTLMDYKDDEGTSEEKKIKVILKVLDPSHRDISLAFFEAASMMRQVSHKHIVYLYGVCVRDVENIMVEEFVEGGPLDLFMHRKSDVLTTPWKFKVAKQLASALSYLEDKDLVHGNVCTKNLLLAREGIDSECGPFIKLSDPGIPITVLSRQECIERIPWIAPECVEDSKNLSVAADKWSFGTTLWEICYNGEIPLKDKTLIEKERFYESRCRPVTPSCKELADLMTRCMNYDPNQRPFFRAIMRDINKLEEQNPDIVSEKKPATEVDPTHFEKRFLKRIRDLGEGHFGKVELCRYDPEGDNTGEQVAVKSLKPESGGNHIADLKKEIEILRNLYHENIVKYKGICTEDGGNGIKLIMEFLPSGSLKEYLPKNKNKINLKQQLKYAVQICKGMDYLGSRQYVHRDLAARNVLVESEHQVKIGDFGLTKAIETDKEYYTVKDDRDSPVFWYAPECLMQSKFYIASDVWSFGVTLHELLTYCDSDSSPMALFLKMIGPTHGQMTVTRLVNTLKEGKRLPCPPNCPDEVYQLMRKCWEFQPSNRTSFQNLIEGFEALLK

**Q.** What does the source list for `COc1ccc(-c2noc(-c3cnc(Oc4ccc5cc(C(=O)N6CCN(Cc7ccc(OCC(F)(F)F)cc7)CC6)n(C)c5c4)cn3)n2)cc1`?
**A.** inhibition [1]: Active; Activity [2]: Non-Toxic; IC50 [3]: 1.9 nM; microsomal CLint [4]: 18.3 µL/min/mg; remaining at 1 h [5]: 59.5%; inhibition in vivo at 10 mg/kg [6]: 69.2%; IC50 [7]: 2.1 nM; inhibition [8]: Tde; IC50 [9]: > 10000 nM; inhibition [10]: Active; inhibition [11]: Active; IC50 [12]: > 50000 nM; inhibition [13]: Tde; inhibition [14]: Tde; IC50 [15]: > 1000 nM; Activity [16]: Non-Toxic; microsomal CLint [17]: 16.9 µL/min/mg; Cmax [18]: 1.81 µg/mL; half-life [19]: 1.26 h; inhibition [20]: Tde; IC50 [21]: 5.3 nM; inhibition [22]: Dde; Activity [23]: Non-Toxic; inhibition [24]: Dde; IC50 [25]: > 10000 nM; Activity [26]: Non-Toxic; half-life [27]: 1.37 h; inhibition [28]: Dde; IC50 [29]: > 10000 nM; inhibition [30]: Dde; inhibition in vivo at 30 mg/kg [31]: 74.6%

Source: ChEMBL document CHEMBL5096221, “Discovery of a Highly Potent and Orally Bioavailable STAT3 Dual Phosphorylation Inhibitor for Pancreatic Cancer Treatment” (J Med Chem, 2022)
